Assay results published in patent US20070129344A1, “Bicyclic 6-alkylidene-penem beta-lactamase inhibitors and beta-lactam antibiotic combination: a broad spectrum antibiotic” (priority 2005, published 2007).

Key:
[1] = test system: K. pneumoniae GC 7823 Fox 5; experiment: MIC microbroth dilution; β-lactamase class C; type: cell-based; conditions: K. pneumoniae GC 7823; Cefepime + 4 ug/ml Compound 1
Procedure: (§1) The in vitro activities of the antibiotics were determined by the microbroth dilution method as recommended by the National Committee for Clinical Laboratory Standards (NCCLS). (NCCLS. 2000. Methods for Dilution Antimicrobial Susceptibility Tests for Bacteria That Grow Aerobically; Approved Standards: M7-A5, vol. 19. National Committee for Clinical Laboratory Standards, Villanova, Pa.). Mueller-Hinton II broth (MHBII)(BBL Cockeysville, Md.), was used for the testing procedure. […]. The plates were incubated for 18-22 hours at 35° C. in ambient air.

[2] = test system: E. cloacae PT 967 Inducible AmpC; experiment: MIC microbroth dilution; β-lactamase class C; type: cell-based; conditions: Cefepime + 4 ug/ml Compound 1
Procedure: as §1

[3] = test system: A. baumannii GC 7684 AmpC, AmpC; experiment: MIC microbroth dilution; β-lactamase class C; type: cell-based; conditions: Cefepime + 4 ug/ml Compound 1
Procedure: as §1

[4] = test system: S. marcescens PT 696 Inducible AmpC; experiment: MIC microbroth dilution; β-lactamase class C; type: cell-based; conditions: Cefepime + 4 ug/ml Compound 1
Procedure: as §1

[5] = test system: P. aeruginosa ATCC 27853 AmpC-inducable; experiment: MIC microbroth dilution; β-lactamase class C; type: cell-based; conditions: Cefepime + 4 ug/ml Compound 1
Procedure: as §1

[6] = test system: K. pneumoniae GC 7821 DHA 1; experiment: MIC microbroth dilution; β-lactamase class C; type: cell-based; conditions: K. pneumoniae GC 7821; Cefepime + 4 ug/ml Compound 1
Procedure: as §1

[7] = test system: E. cloacae GC 6991 (AmpC); experiment: MIC microbroth dilution; β-lactamase class C; type: cell-based; conditions: Cefepime + 4 ug/ml Compound 1
Procedure: as §1

[8] = test system: P. aeruginosa GC 1764 (AmpC); experiment: MIC microbroth dilution; β-lactamase class C; type: cell-based; conditions: Cefepime + 4 ug/ml Compound 1
Procedure: as §1

[9] = test system: E. cloacae GC 4142 (AmpC); experiment: MIC microbroth dilution; β-lactamase class C; type: cell-based; conditions: Cefepime + 4 ug/ml Compound 1
Procedure: as §1

[10] = test system: K. pneumoniae GC 7635 SHV-1, KPC2; experiment: MIC microbroth dilution; β-lactamase class A, A (Cb'ase); type: cell-based; conditions: Cefepime + 4 ug/ml Compound 1
Procedure: as §1

[11] = test system: E. coli GAR 6649 TEM, OXA, CTX (By PCR only); experiment: MIC microbroth dilution; β-lactamase class A, A (ESBL), D; type: cell-based; conditions: Cefepime + 4 ug/ml Compound 1
Procedure: as §1

E. coli GC 2844 (none) = experiment: MIC microbroth dilution; β-lactamase class none; type: cell-based; conditions: Cefepime + 4 ug/ml Compound 1
Procedure: as §1

E. coli GC 2804 (imp) = experiment: MIC microbroth dilution; β-lactamase class none; type: cell-based; conditions: Cefepime + 4 ug/ml Compound 1
Procedure: as §1

[12] = test system: E. coli ATCC 25922 (none); experiment: MIC microbroth dilution; β-lactamase class none; type: cell-based; conditions: E. coli ATCC 25922; Cefepime + 4 ug/ml Compound 1
Procedure: as §1

[13] = test system: S. maltophilia GC 1712 (L1); experiment: MIC microbroth dilution; β-lactamase class B; type: cell-based; conditions: Cefepime + 4 ug/ml Compound 1
Procedure: as §1

[14] = test system: K. pneumoniae GC 7632 TEM-1 KPC-2, SHV-7, SHV-12; experiment: MIC microbroth dilution; β-lactamase class A, A (Cb'ase), A (ESBL); type: cell-based; conditions: Cefepime + 4 ug/ml Compound 1
Procedure: as §1

[15] = test system: P. aeruginosa PT 8411 PTZ-R; experiment: MIC microbroth dilution; type: cell-based; conditions: Cefepime + 4 ug/ml Compound 1
Procedure: as §1

[16] = test system: P. aeruginosa PT 9236 PTZ-R; experiment: MIC microbroth dilution; type: cell-based; conditions: Cefepime + 4 ug/ml Compound 1
Procedure: as §1

[17] = test system: P. aeruginosa PT 9587 PTZ-R; experiment: MIC microbroth dilution; type: cell-based; conditions: Cefepime + 4 ug/ml Compound 1
Procedure: as §1

[18] = test system: P. aeruginosa PT 8503 PTZ-R; experiment: MIC microbroth dilution; type: cell-based; conditions: Cefepime + 4 ug/ml Compound 1
Procedure: as §1

E. coli GC 2847 (TEM-1) = experiment: MIC microbroth dilution; β-lactamase class A; type: cell-based; conditions: Cefepime + 4 ug/ml Compound 1
Procedure: as §1

[19] = test system: A. baumannii GC 6662 IMI-R; experiment: MIC microbroth dilution; class PBP (penicillin binding protein); type: cell-based; conditions: Cefepime + 4 ug/ml Compound 1
Procedure: as §1

[20] = test system: A. baumannii GC 6660 IMI-R; experiment: as above; type: cell-based; conditions: Cefepime + 4 ug/ml Compound 1
Procedure: as §1

[21] = test system: A. baumannii GC 6661 IMI-R; experiment: as above; type: cell-based; conditions: Cefepime + 4 ug/ml Compound 1
Procedure: as §1

[22] = test system: K. pn GC 6494 (TEM-1 + SHV-5); experiment: MIC microbroth dilution; β-lactamase class A, A (ESBL); type: cell-based, K. pneumoniae; conditions: Cefepime + 4 ug/ml Compound 1
Procedure: as §1

[23] = test system: K. pn GC 6657 (TEM-1 + SHV-27); experiment: as above; type: cell-based, K. pneumoniae; conditions: Cefepime + 4 ug/ml Compound 1
Procedure: as §1

[24] = test system: K. pn GC 1554 (TEM-1 + TEM-26 + SHV-1); experiment: as above; type: cell-based, K. pneumoniae; conditions: Cefepime + 4 ug/ml Compound 1
Procedure: as §1

[25] = test system: K. pn GC 6488 (TEM-1 + SHV-5 + SHV-7); experiment: as above; type: cell-based, K. pneumoniae; conditions: Cefepime + 4 ug/ml Compound 1
Procedure: as §1

[26] = test system: K. pn GC 6651 (TEM-1 + SHV-1 + SHV-5); experiment: as above; type: cell-based, K. pneumoniae; conditions: Cefepime + 4 ug/ml Compound 1
Procedure: as §1

[27] = test system: K. pn GC 3057 (CAZ-R; P/T-R); experiment: as above; type: cell-based, K. pneumoniae; conditions: Cefepime + 4 ug/ml Compound 1
Procedure: as §1

[28] = test system: K. pn GC 1507 (TEM-9 + SHV-1); experiment: as above; type: cell-based, K. pneumoniae; conditions: Cefepime + 4 ug/ml Compound 1
Procedure: as §1

[29] = test system: K. pn GC 1963 (TEM-10 + SHV-1 + SHV-ESBL); experiment: as above; type: cell-based, K. pneumoniae; conditions: Cefepime + 4 ug/ml Compound 1
Procedure: as §1

[30] = test system: K. pn GC 2006 (TEM-10 + SHV-1); experiment: as above; type: cell-based, K. pneumoniae; conditions: Cefepime + 4 ug/ml Compound 1
Procedure: as §1

[31] = test system: S. marcescens GC 1781 (Sme-1 + AmpC); experiment: MIC microbroth dilution; β-lactamase class A (Cb'ase), C; type: cell-based; conditions: Cefepime + 4 ug/ml Compound 1
Procedure: as §1

O=C([O-])C1=CS[C@@H]2/C(=C\c3cn4c(n3)CCC4)C(=O)N12.[Na+] [Compound 1, (5R), (6Z)-6-(6,7-Dihydro-5H-pyrrolo[1,2-a]imidazol-2-ylmethylene)-7-oxo-4-thia-1-aza-bicyclo[3.2.0]hept-2-ene-2-carboxylic Acid, Sodium Salt]
MIC [1]: 0.12 µg/mL
MIC [2]: 0.06 µg/mL
MIC [3]: 8 µg/mL
MIC [4]: 0.06 µg/mL
MIC [5]: 2 µg/mL
MIC [6]: 0.03 µg/mL
MIC [7]: 0.50 µg/mL
MIC [8]: 1 µg/mL
MIC [9]: 0.12 µg/mL
MIC [10]: 8 µg/mL
MIC [11]: 1 µg/mL
MIC (E. coli GC 2844 (none)): 0.06 µg/mL
MIC (E. coli GC 2804 (imp)): <0.015 µg/mL
MIC [12]: 0.03 µg/mL
MIC [13]: 16 µg/mL
MIC [14]: 16 µg/mL
MIC [15]: 4 µg/mL
MIC [16]: 16 µg/mL
MIC [17]: 2 µg/mL
MIC [18]: 2 µg/mL
MIC (E. coli GC 2847 (TEM-1)): 0.06 µg/mL
MIC [19]: >16 µg/mL
MIC [20]: >16 µg/mL
MIC [21]: 16 µg/mL
MIC [22]: 0.12 µg/mL
MIC [23]: 0.12 µg/mL
MIC [24]: 0.25 µg/mL
MIC [25]: 1 µg/mL
MIC [26]: 0.12 µg/mL
MIC [27]: 0.12 µg/mL
MIC [28]: 0.12 µg/mL
MIC [29]: 0.12 µg/mL
MIC [30]: 0.12 µg/mL
MIC [31]: 0.12 µg/mL
